Experimental data taken from ChEMBL document CHEMBL5678810.

Assays:
[1] = molecular target: T1, Tyrosine-protein kinase receptor TYRO3 (Homo sapiens) (UniProt Q06418); experiment: Inhibition of T7 bacteriophage fused human TYRO3 at 10 uM by KINOMEscan analysis relative to control
T1 sequence (whole entry): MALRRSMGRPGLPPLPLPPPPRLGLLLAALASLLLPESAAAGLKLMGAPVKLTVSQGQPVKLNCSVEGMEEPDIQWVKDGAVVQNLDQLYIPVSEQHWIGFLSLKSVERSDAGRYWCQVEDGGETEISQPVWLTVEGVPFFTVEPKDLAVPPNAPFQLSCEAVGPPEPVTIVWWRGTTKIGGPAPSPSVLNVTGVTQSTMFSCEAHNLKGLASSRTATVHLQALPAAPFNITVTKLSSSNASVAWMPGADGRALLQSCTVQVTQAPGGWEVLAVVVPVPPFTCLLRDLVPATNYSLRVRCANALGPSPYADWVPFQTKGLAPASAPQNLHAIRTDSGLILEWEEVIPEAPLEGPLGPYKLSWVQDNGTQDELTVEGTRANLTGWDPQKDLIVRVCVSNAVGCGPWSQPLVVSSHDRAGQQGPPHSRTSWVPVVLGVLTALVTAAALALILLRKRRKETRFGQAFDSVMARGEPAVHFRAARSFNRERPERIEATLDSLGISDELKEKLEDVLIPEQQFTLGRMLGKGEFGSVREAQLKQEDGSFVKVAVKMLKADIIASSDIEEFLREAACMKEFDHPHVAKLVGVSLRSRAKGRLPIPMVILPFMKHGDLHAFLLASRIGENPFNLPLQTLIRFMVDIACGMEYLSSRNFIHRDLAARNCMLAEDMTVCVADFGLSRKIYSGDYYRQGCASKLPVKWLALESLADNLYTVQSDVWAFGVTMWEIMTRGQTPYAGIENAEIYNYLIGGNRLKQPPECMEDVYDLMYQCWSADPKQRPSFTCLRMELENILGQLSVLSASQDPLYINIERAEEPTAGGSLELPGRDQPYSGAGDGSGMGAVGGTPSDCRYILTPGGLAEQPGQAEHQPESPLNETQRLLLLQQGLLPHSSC

[2] = molecular target: Tyrosine-protein kinase receptor Tie-1 (Homo sapiens) (UniProt P35590); experiment: Inhibition of T7 bacteriophage fused human TIE1 at 10 uM by KINOMEscan analysis relative to control
Tyrosine-protein kinase receptor Tie-1 (Homo sapiens), sequence (P35590 whole entry, the tested form may be a part): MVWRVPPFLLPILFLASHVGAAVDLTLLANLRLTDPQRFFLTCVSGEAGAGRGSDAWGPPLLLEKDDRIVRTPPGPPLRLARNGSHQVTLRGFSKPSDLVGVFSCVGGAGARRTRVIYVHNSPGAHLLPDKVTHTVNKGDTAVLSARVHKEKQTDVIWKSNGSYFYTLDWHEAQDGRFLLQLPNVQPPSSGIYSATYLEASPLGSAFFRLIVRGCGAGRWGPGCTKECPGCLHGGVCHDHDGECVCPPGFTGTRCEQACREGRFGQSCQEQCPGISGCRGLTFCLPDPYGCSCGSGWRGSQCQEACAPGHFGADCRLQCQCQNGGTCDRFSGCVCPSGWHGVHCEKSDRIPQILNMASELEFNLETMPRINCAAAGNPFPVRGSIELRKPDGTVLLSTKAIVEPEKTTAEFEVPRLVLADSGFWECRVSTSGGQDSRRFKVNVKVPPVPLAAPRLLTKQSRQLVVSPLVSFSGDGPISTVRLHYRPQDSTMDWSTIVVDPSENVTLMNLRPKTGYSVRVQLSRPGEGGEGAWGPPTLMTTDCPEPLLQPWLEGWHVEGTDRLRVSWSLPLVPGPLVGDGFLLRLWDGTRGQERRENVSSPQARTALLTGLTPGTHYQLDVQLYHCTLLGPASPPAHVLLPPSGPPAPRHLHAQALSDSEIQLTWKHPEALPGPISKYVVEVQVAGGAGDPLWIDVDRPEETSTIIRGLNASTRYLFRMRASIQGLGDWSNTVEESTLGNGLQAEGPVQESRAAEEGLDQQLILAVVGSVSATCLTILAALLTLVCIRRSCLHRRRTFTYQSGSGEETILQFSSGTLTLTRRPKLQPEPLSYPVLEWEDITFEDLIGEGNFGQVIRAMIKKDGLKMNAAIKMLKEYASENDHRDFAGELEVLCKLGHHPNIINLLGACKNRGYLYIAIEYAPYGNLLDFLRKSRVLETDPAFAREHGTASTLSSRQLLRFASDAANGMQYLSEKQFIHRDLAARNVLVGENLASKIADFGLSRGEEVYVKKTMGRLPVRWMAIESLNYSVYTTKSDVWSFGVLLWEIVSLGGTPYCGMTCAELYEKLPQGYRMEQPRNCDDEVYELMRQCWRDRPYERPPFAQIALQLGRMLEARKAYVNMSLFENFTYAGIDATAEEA

[3] = molecular target: Serine/threonine-protein kinase 4 (Homo sapiens) (UniProt Q13043); experiment: Inhibition of T7 bacteriophage fused human MST1 at 10 uM by KINOMEscan analysis relative to control; values are per cent of control
Serine/threonine-protein kinase 4 (Homo sapiens), sequence (Q13043 whole entry, looked up, the tested form may be a part): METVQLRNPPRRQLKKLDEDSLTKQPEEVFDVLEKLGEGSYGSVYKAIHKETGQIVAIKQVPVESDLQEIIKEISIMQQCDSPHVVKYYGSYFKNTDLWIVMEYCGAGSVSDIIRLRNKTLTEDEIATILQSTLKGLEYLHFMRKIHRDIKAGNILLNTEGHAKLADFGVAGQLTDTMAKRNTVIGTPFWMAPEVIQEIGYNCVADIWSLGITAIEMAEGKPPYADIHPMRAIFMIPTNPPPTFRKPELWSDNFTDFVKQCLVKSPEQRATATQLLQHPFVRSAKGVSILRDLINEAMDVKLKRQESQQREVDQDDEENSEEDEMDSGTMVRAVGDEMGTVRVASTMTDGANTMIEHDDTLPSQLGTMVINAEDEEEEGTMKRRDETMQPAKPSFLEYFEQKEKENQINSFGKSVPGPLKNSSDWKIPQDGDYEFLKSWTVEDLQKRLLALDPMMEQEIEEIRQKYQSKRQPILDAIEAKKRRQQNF

[4] = molecular target: T2, Serine/threonine-protein kinase TAO1 (Homo sapiens) (UniProt Q7L7X3); experiment: Inhibition of T7 bacteriophage fused human TAOK1 at 10 uM by KINOMEscan analysis relative to control
T2 sequence (whole entry): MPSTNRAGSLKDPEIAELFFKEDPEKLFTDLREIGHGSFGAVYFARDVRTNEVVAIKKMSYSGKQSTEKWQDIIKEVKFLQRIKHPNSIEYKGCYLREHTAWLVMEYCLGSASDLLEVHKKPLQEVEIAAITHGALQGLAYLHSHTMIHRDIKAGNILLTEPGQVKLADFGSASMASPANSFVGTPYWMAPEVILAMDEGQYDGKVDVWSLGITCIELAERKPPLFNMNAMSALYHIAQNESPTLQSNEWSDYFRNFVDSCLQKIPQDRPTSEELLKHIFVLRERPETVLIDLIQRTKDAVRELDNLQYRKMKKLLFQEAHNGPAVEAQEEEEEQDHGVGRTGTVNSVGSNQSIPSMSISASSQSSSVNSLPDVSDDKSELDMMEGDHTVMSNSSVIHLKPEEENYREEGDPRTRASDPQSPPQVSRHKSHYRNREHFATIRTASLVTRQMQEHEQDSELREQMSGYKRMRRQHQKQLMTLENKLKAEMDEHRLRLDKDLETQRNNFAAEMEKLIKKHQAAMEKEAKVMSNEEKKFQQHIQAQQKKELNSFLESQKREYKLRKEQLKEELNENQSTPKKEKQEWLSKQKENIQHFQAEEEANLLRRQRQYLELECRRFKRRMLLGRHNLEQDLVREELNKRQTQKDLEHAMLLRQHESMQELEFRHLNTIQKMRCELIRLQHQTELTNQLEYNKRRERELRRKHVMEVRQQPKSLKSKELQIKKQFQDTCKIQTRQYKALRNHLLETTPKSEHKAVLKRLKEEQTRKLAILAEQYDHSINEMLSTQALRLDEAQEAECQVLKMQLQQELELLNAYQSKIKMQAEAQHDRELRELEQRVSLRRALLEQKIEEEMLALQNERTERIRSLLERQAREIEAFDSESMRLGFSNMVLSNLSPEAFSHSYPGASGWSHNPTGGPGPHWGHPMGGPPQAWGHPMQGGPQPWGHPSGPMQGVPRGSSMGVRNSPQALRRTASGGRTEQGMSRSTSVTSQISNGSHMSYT

[5] = molecular target: TGF-beta receptor type-2 (Homo sapiens) (UniProt P37173); experiment: Inhibition of T7 bacteriophage fused human TGFBR2 at 10 uM by KINOMEscan analysis relative to control
TGF-beta receptor type-2 (Homo sapiens), sequence (P37173 whole entry, the tested form may be a part): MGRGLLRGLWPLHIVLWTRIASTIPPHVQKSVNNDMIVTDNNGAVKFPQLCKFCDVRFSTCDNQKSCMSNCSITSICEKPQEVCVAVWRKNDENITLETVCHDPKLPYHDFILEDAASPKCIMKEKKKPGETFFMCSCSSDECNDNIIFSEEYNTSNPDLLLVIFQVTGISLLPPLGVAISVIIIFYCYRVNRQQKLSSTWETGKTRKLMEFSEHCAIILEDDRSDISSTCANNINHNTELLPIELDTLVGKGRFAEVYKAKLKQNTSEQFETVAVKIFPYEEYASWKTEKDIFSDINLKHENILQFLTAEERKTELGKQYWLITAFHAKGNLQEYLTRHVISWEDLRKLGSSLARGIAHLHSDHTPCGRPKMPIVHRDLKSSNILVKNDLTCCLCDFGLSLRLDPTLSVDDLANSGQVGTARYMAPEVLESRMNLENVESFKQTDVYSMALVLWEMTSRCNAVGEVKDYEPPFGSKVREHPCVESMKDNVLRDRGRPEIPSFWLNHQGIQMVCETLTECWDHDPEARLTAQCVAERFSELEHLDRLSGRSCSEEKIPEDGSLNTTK

[6] = molecular target: Mitogen-activated protein kinase kinase kinase 20 (Homo sapiens) (UniProt Q9NYL2); experiment: Inhibition of T7 bacteriophage fused human ZAK at 10 uM by KINOMEscan analysis relative to control
Mitogen-activated protein kinase kinase kinase 20 (Homo sapiens), sequence (Q9NYL2 2-800 limits assumed): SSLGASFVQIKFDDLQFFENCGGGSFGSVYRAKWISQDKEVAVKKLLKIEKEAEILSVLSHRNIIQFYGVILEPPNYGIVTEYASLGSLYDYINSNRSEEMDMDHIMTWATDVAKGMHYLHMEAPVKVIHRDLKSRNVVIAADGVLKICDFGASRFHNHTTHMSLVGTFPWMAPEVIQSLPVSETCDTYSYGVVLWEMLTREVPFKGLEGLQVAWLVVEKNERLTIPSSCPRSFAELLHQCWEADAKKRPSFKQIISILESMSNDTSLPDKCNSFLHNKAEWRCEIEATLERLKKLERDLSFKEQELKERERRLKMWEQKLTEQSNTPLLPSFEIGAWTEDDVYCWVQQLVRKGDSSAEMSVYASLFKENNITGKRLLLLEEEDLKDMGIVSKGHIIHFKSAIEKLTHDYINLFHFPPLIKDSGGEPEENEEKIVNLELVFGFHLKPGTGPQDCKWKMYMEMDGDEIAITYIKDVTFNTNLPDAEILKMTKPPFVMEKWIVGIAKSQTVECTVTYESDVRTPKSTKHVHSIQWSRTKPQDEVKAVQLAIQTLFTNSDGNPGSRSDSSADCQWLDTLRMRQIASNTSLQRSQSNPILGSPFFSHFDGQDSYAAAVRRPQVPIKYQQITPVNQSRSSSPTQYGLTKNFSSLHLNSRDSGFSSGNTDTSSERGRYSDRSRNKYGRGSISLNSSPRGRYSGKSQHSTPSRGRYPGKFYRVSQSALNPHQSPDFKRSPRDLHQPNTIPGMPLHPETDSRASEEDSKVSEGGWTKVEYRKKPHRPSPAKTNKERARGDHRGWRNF

[7] = molecular target: Ribosomal protein S6 kinase alpha-2 (Homo sapiens) (UniProt Q15349); experiment: Inhibition of T7 bacteriophage fused human N-terminal RSK3 Kinase domain-1 at 10 uM by KINOMEscan analysis relative to control
Ribosomal protein S6 kinase alpha-2 (Homo sapiens), sequence (Q15349 whole entry, the tested form may be a part): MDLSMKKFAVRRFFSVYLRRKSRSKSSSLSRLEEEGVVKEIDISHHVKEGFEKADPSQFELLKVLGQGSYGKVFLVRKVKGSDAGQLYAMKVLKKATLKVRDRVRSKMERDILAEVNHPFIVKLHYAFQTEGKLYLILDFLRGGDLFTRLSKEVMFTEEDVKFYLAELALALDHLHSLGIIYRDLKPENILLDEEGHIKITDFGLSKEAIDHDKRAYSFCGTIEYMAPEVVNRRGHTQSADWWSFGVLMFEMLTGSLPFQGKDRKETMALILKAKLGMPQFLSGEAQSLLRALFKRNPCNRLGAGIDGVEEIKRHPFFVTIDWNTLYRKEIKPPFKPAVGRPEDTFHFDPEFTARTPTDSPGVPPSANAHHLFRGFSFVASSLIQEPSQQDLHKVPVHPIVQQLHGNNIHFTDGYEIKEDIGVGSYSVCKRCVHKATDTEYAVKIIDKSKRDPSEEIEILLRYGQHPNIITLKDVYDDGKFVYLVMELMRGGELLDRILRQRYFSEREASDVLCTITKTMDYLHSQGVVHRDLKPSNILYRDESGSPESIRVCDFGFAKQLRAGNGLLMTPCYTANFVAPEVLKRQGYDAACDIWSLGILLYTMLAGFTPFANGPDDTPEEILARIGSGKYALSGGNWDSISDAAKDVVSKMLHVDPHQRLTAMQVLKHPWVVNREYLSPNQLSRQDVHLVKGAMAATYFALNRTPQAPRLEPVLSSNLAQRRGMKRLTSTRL

[8] = molecular target: Activated CDC42 kinase 1 (Homo sapiens) (UniProt Q07912); experiment: Inhibition of T7 bacteriophage fused human TNK2 at 10 uM by KINOMEscan analysis relative to control
Activated CDC42 kinase 1 (Homo sapiens), sequence (Q07912 whole entry, looked up, the tested form may be a part): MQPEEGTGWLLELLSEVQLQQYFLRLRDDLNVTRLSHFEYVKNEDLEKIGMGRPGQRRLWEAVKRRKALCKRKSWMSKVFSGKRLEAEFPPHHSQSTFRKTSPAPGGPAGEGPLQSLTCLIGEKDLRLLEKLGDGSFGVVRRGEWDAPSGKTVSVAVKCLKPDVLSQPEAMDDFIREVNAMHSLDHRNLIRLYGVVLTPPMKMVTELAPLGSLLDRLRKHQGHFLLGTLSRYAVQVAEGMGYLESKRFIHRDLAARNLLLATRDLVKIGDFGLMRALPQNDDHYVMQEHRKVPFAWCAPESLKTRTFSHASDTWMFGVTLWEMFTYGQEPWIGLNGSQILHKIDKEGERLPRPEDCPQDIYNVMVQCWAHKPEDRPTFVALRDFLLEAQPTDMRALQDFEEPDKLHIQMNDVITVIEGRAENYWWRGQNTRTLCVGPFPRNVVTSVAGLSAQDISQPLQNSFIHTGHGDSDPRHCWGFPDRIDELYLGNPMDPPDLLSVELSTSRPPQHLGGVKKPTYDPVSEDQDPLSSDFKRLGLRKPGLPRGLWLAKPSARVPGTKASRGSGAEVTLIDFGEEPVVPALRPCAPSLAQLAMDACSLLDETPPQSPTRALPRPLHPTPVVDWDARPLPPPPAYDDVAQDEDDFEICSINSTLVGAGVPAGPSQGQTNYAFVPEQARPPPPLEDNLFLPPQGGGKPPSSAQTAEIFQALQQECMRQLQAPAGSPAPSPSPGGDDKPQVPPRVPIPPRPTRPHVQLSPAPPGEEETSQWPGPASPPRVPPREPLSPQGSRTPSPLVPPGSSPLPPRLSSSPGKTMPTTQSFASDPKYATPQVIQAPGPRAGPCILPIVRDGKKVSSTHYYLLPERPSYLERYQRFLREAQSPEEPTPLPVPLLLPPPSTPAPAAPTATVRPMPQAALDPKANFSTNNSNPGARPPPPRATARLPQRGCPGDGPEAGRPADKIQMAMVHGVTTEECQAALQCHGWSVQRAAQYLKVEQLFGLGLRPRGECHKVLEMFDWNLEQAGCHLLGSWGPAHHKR

SMILES | inhibition [1] [%] | inhibition [2] [%] | residual activity [3] [%] | inhibition [4] [%] | inhibition [5] [%] | inhibition [6] [%] | inhibition [7] [%] | inhibition [8] [%]
CCOc1cc(C(=O)N2CCC(N3CCN(C)CC3)CC2)ccc1Nc1ncc2c(n1)N(C1CCCC1)c1ccccc1C(=O)N2C | 100 | 100 | 100 | 79 | 100 | 100 | 100 | 80
COc1cc(N2CCC(N3CCN(C)CC3)CC2)ccc1Nc1ncc2c(n1)N(C)c1ccccc1C(=O)N2C | 100 | 100 | 100 | 28 | 100 | 99 | 83 | 18
COc1cc(C(=O)N2CCC(N3CCN(C)CC3)CC2)ccc1Nc1ncc2c(n1)N(C1CCCC1)c1ccccc1C(=O)N2C | 100 | 100 | 100 | 51 | 100 | 100 | 100 | 35
